Laboratory results: PubChem BioAssay AID248 (DTP/NCI, 2004)
Values joined by “and” are separate entries in the source; they are usually repeats but may differ in a detail not shown here. Equal entries are not always repeated. Inconclusive results and toxic doses are left out.

Test system: L1210 leukemia ip in BDF1 mice, survival T/C
Assay: NCI In Vivo Anticancer Drug Screen. Data for tumor model L1210 Leukemia (intraperitoneal) in B6D2F1 (BDF1) mice
Details: higher = longer survival
How it was run: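 Survival endpoint. Drug-treated group vs vehicle group, expressed as T divided by C. Tumor passaged by transplantation.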

[1] = endpoint: mean survival time, dose: 100.0 mg/kg/injection, schedule: Q01DX009 (ip), vehicle: Klucel (hydroxypropylcellulose) (HPC)
[2] = endpoint: mean survival time, dose: 200.0 mg/kg/injection, schedule: Q01DX009 (ip), vehicle: Klucel (hydroxypropylcellulose) (HPC)
[3] = endpoint: mean survival time, dose: 50.0 mg/kg/injection, schedule: Q01DX009 (ip), vehicle: Klucel (hydroxypropylcellulose) (HPC)

## COc1cc(NS(C)(=O)=O)ccc1Nc1c2ccccc2nc2ccccc12
endpoint: mean survival time, dose: 0.25 mg/kg/injection, schedule: Q03HX008 (ip), vehicle: other
  T/C: 120 % of control
endpoint: mean survival time, dose: 0.38 mg/kg/injection, schedule: Q01DX009 (ip), vehicle: saline with Tween-80
  T/C: 185 % of control
endpoint: mean survival time, dose: 0.75 mg/kg/injection, schedule: Q01DX009 (sc), vehicle: saline
  T/C: 118 % of control
endpoint: mean survival time, dose: 1.0 mg/kg/injection, schedule: Q01DX009 (ip), vehicle: Klucel (hydroxypropylcellulose) (HPC)
  T/C: 160 % of control
endpoint: mean survival time, dose: 1.25 mg/kg/injection, schedule: Q01DX009 (sc), vehicle: saline
  T/C: 112 % of control
endpoint: mean survival time, dose: 1.35 mg/kg/injection, schedule: Q01DX009 (ip), vehicle: acetone
  T/C: 151 % of control
endpoint: mean survival time, dose: 1.5 mg/kg/injection, schedule: Q01DX009 (sc), vehicle: saline
  T/C: 113 % of control
endpoint: mean survival time, dose: 1.56 mg/kg/injection, schedule: Q01DX009 (ip), vehicle: saline with Tween-80
  T/C: 236 % of control
endpoint: mean survival time, dose: 1.8 mg/kg/injection, schedule: Q01DX009 (ip), vehicle: water
  T/C: 150 % of control
endpoint: mean survival time, dose: 1.9 mg/kg/injection, schedule: Q01DX001 (ip), vehicle: other
  T/C: 116 % of control
endpoint: mean survival time, dose: 2.0 mg/kg/injection, schedule: Q03HX008 (ip), vehicle: other
  T/C: 203 % of control
endpoint: mean survival time, dose: 2.05 mg/kg/injection, schedule: Q01DX009 (ip), vehicle: Klucel (hydroxypropylcellulose) (HPC)
  T/C: 155 % of control
endpoint: mean survival time, dose: 2.05 mg/kg/injection, schedule: Q01DX009 (ip), vehicle: acetone
  T/C: 187 % of control
endpoint: mean survival time, dose: 2.5 mg/kg/injection, schedule: Q01DX009 (sc), vehicle: saline
  T/C: 110 % of control and 121 % of control
endpoint: mean survival time, dose: 3.0 mg/kg/injection, schedule: Q01DX009 (ip), vehicle: Klucel (hydroxypropylcellulose) (HPC)
  T/C: 176 % of control
endpoint: mean survival time, dose: 3.0 mg/kg/injection, schedule: Q01DX009 (ip), vehicle: water
  T/C: 174 % of control
endpoint: mean survival time, dose: 3.0 mg/kg/injection, schedule: Q01DX009 (sc), vehicle: saline
  T/C: 114 % of control
endpoint: mean survival time, dose: 3.07 mg/kg/injection, schedule: Q01DX009 (ip), vehicle: Klucel (hydroxypropylcellulose) (HPC)
  T/C: 157 % of control
endpoint: mean survival time, dose: 3.07 mg/kg/injection, schedule: Q01DX009 (ip), vehicle: acetone
  T/C: 188 % of control
endpoint: mean survival time, dose: 3.12 mg/kg/injection, schedule: Q01DX009 (ip), vehicle: acetone
  T/C: 188 % of control
endpoint: mean survival time, dose: 3.12 mg/kg/injection, schedule: Q01DX009 (ip), vehicle: saline with Tween-80
  T/C: 178 % of control and 216 % of control
endpoint: mean survival time, dose: 3.75 mg/kg/injection, schedule: Q01DX001 (ip), vehicle: other
  T/C: 124 % of control
endpoint: mean survival time, dose: 4.0 mg/kg/injection, schedule: Q01DX009 (ip), vehicle: Klucel (hydroxypropylcellulose) (HPC)
  T/C: 154 % of control
endpoint: mean survival time, dose: 5.0 mg/kg/injection, schedule: Q01DX009 (ip), vehicle: saline with Tween-80
  T/C: 153 % of control
endpoint: mean survival time, dose: 5.0 mg/kg/injection, schedule: Q01DX009 (ip), vehicle: water
  T/C: 113 % of control
endpoint: mean survival time, dose: 5.0 mg/kg/injection, schedule: Q01DX009 (sc), vehicle: saline
  T/C: 123 % of control
endpoint: mean survival time, dose: 6.0 mg/kg/injection, schedule: Q01DX009 (ip), vehicle: Klucel (hydroxypropylcellulose) (HPC)
  T/C: 150 % of control
endpoint: mean survival time, dose: 6.25 mg/kg/injection, schedule: Q01DX009 (ip), vehicle: acetone
  T/C: 186 % of control
endpoint: mean survival time, dose: 7.5 mg/kg/injection, schedule: Q04DX003 (ip), vehicle: other
  T/C: 156 % of control
endpoint: mean survival time, dose: 8.0 mg/kg/injection, schedule: Q01DX009 (ip), vehicle: other
  T/C: 91 % of control
endpoint: mean survival time, dose: 8.4 mg/kg/injection, schedule: Q01DX009 (ip), vehicle: water
  T/C: 89 % of control
endpoint: mean survival time, dose: 10.0 mg/kg/injection, schedule: Q01DX009 (ip), vehicle: saline with Tween-80
  T/C: 207 % of control
endpoint: mean survival time, dose: 12.5 mg/kg/injection, schedule: Q01DX009 (ip), vehicle: acetone
  T/C: 90 % of control
endpoint: mean survival time, dose: 12.5 mg/kg/injection, schedule: Q01DX009 (ip), vehicle: saline with Tween-80
  T/C: 93 % of control
endpoint: mean survival time, dose: 12.5 mg/kg/injection, schedule: Q01DX009 (ip), vehicle: saline
  T/C: 103 % of control
endpoint: mean survival time, dose: 15.0 mg/kg/injection, schedule: Q04DX003 (ip), vehicle: other
  T/C: 294 % of control
endpoint: mean survival time, dose: 18.75 mg/kg/injection, schedule: Q01DX001 (ip), vehicle: saline with Tween-80
  T/C: 160 % of control
endpoint: mean survival time, dose: 25.0 mg/kg/injection, schedule: Q01DX001 (ip), vehicle: Klucel (hydroxypropylcellulose) (HPC)
  T/C: 152 % of control
endpoint: mean survival time, dose: 30.0 mg/kg/injection, schedule: Q01DX001 (ip), vehicle: Klucel (hydroxypropylcellulose) (HPC)
  T/C: 254 % of control
endpoint: mean survival time, dose: 30.0 mg/kg/injection, schedule: Q01DX001 (ip), vehicle: other
  T/C: 91 % of control
endpoint: mean survival time, dose: 37.5 mg/kg/injection, schedule: Q01DX001 (ip), vehicle: saline with Tween-80
  T/C: 178 % of control and 270 % of control
endpoint: mean survival time, dose: 45.0 mg/kg/injection, schedule: Q01DX001 (ip), vehicle: Klucel (hydroxypropylcellulose) (HPC)
  T/C: 160 % of control
endpoint: mean survival time, dose: 50.0 mg/kg/injection, schedule: Q01DX001 (ip), vehicle: saline
  T/C: 158 % of control and 175 % of control
endpoint: mean survival time, dose: 60.0 mg/kg/injection, schedule: Q01DX001 (ip), vehicle: Klucel (hydroxypropylcellulose) (HPC)
  T/C: 160 % of control and 255 % of control
endpoint: mean survival time, dose: 75.0 mg/kg/injection, schedule: Q01DX001 (ip), vehicle: saline
  T/C: 202 % of control and 236 % of control
endpoint: mean survival time, dose: 150.0 mg/kg/injection, schedule: Q01DX001 (ip), vehicle: saline with Tween-80
  T/C: 232 % of control
endpoint: median survival time, dose: 1.0 mg/kg/injection, schedule: Q01DX009 (sc), vehicle: other
  T/C: 121 % of control
endpoint: median survival time, dose: 2.0 mg/kg/injection, schedule: Q01DX009 (oral), vehicle: other
  T/C: 102 % of control
endpoint: median survival time, dose: 4.0 mg/kg/injection, schedule: Q01DX009 (oral), vehicle: other
  T/C: 109 % of control
endpoint: median survival time, dose: 8.0 mg/kg/injection, schedule: Q01DX009 (oral), vehicle: other
  T/C: 120 % of control
endpoint: median survival time, dose: 8.0 mg/kg/injection, schedule: Q01DX009 (sc), vehicle: other
  T/C: 98 % of control

## CCOC(=O)Nc1cc([N+](=O)[O-])ccc1OC
endpoint: mean survival time, dose: 100.0 mg/kg/injection, schedule: Q01DX001 (ip), vehicle: Klucel (hydroxypropylcellulose) (HPC)
  T/C: 105 % of control
[1]
  T/C: 105 % of control
endpoint: mean survival time, dose: 100.0 mg/kg/injection, schedule: Q04DX002 (ip), vehicle: Klucel (hydroxypropylcellulose) (HPC)
  T/C: 96 % of control and 104 % of control
endpoint: mean survival time, dose: 100.0 mg/kg/injection, schedule: Q04DX003 (ip), vehicle: Klucel (hydroxypropylcellulose) (HPC)
  T/C: 101 % of control
endpoint: mean survival time, dose: 200.0 mg/kg/injection, schedule: Q01DX001 (ip), vehicle: Klucel (hydroxypropylcellulose) (HPC)
  T/C: 100 % of control
[2]
  T/C: 108 % of control
endpoint: mean survival time, dose: 200.0 mg/kg/injection, schedule: Q04DX002 (ip), vehicle: Klucel (hydroxypropylcellulose) (HPC)
  T/C: 96 % of control and 97 % of control
endpoint: mean survival time, dose: 200.0 mg/kg/injection, schedule: Q04DX003 (ip), vehicle: Klucel (hydroxypropylcellulose) (HPC)
  T/C: 98 % of control
endpoint: mean survival time, dose: 400.0 mg/kg/injection, schedule: Q01DX001 (ip), vehicle: Klucel (hydroxypropylcellulose) (HPC)
  T/C: 101 % of control
endpoint: mean survival time, dose: 400.0 mg/kg/injection, schedule: Q01DX009 (ip), vehicle: Klucel (hydroxypropylcellulose) (HPC)
  T/C: 102 % of control
endpoint: mean survival time, dose: 400.0 mg/kg/injection, schedule: Q04DX002 (ip), vehicle: Klucel (hydroxypropylcellulose) (HPC)
  T/C: 96 % of control and 103 % of control
endpoint: mean survival time, dose: 400.0 mg/kg/injection, schedule: Q04DX003 (ip), vehicle: Klucel (hydroxypropylcellulose) (HPC)
  T/C: 101 % of control

## COc1ccc(/C=N/N2CCN(/N=C/c3ccc(OC)c(O)c3)CC2)cc1O
endpoint: mean survival time, dose: 100.0 mg/kg/injection, schedule: Q01DX001 (ip), vehicle: saline
  T/C: 93 % of control
endpoint: mean survival time, dose: 200.0 mg/kg/injection, schedule: Q01DX001 (ip), vehicle: saline
  T/C: 87 % of control
endpoint: mean survival time, dose: 400.0 mg/kg/injection, schedule: Q01DX001 (ip), vehicle: saline
  T/C: 96 % of control

## COC(=O)c1ccccc1NC(=O)Nc1ccccc1F
[3]
  T/C: 90 % of control
[1]
  T/C: 96 % of control
[2]
  T/C: 93 % of control

## CCOC(=O)/C(C#N)=C(/C)C1CC1
endpoint: mean survival time, dose: 6.25 mg/kg/injection, schedule: Q01DX009 (ip), vehicle: Klucel (hydroxypropylcellulose) (HPC)
  T/C: 95 % of control
endpoint: mean survival time, dose: 12.5 mg/kg/injection, schedule: Q01DX009 (ip), vehicle: Klucel (hydroxypropylcellulose) (HPC)
  T/C: 105 % of control
endpoint: mean survival time, dose: 25.0 mg/kg/injection, schedule: Q01DX009 (ip), vehicle: Klucel (hydroxypropylcellulose) (HPC)
  T/C: 97 % of control
endpoint: mean survival time, dose: 75.0 mg/kg/injection, schedule: Q01DX001 (ip), vehicle: carboxymethylcellulose (CMC)
  T/C: 95 % of control
endpoint: mean survival time, dose: 150.0 mg/kg/injection, schedule: Q01DX001 (ip), vehicle: carboxymethylcellulose (CMC)
  T/C: 105 % of control

## CN(C)C=Nc1cc2c3c(c1)CCCN3CCC2
endpoint: mean survival time, dose: 12.5 mg/kg/injection, schedule: Q01DX001 (ip), vehicle: saline
  T/C: 103 % of control
endpoint: mean survival time, dose: 25.0 mg/kg/injection, schedule: Q01DX001 (ip), vehicle: saline
  T/C: 105 % of control

## CCOC(=O)C1CC=CCC1C(=O)OCC (centres undefined)
[3]
  T/C: 105 % of control
endpoint: mean survival time, dose: 75.0 mg/kg/injection, schedule: Q01DX009 (ip), vehicle: Klucel (hydroxypropylcellulose) (HPC)
  T/C: 108 % of control
endpoint: mean survival time, dose: 150.0 mg/kg/injection, schedule: Q01DX009 (ip), vehicle: Klucel (hydroxypropylcellulose) (HPC)
  T/C: 112 % of control
